Test results: ChEMBL document CHEMBL3885861, “Open TG-GATES”
Structures can show the parent of a compound that is named as a salt.

Species on record: Rattus norvegicus
Test: Open TG-GATES - Regimen: Single
Type: toxicity, organism-based, Sprague-Dawley
Set-up: regimen Single, gender Male, age 6 weeks
Details: in vivo, ip, 240 mg/kg, route intraperitoneal injection, dose level Middle; for APTT / Bas / Eos / Fbg / Hb / Ht / Lym / MCH / MCHC / MCV / Mono / Neu / PT / Plat / RBC / Ret / WBC: tissue Blood; for KIDNEY_L / KIDNEY_R / KIDNEY_TOTAL: tissue Kidney; for LIVER: tissue Liver; for A/G / ALP / ALT / AST / BUN / CRE / Ca / Cl / DBIL / GLC / IP / K / LDH / Na / PL / RALB / TBIL / TC / TG / TP / gamma-GTP: tissue Plasma

Compound: CCOC(=O)/C=C\C(=O)OCC [DIETHYL MALEATE]
- TERMINAL_BW (3 h): 196.7 g
- APTT (3 h): 16 s
- Bas (3 h): 0%
- Eos (3 h): 1%
- Fbg (3 h): 206.2 mg/dL
- Hb (3 h): 13.4 g/dL
- Ht (3 h): 40.3%
- Lym (3 h): 72%
- MCH (3 h): 21.3 pg
- MCHC (3 h): 33.3%
- MCV (3 h): 63.8 fL
- Mono (3 h): 5.6%
- Neu (3 h): 21.6%
- PT (3 h): 12.4 s
- Plat (3 h): 124.8 x10_4/uL
- RBC (3 h): 631.8 x10_4/ul
- Ret (3 h): 9.7%
- WBC (3 h): 90.3 x10_2/uL
- KIDNEY_L (3 h): 0.9 g
- KIDNEY_R (3 h): 0.9 g
- KIDNEY_TOTAL (3 h): 1.8 g
- LIVER (3 h): 8.5 g
- A/G (3 h): 2.1
- ALP (3 h): 700.6 IU/L
- ALT (3 h): 35.8 IU/L
- AST (3 h): 80.6 IU/L
- BUN (3 h): 17 mg/dL
- CRE (3 h): 0.5 mg/dL
- Ca (3 h): 10.9 mg/dL
- Cl (3 h): 105.4 meq/L
- DBIL (3 h): 0.02 mg/dL
- GLC (3 h): 191.8 mg/dL
- IP (3 h): 10.9 mg/dL
- K (3 h): 5.2 meq/L
- LDH (3 h): 147 IU/L
- Na (3 h): 138.4 meq/L
- PL (3 h): 126 mg/dL
- RALB (3 h): 3.6 g/dL
- TBIL (3 h): 0.4 mg/dL
- TC (3 h): 71.8 mg/dL
- TG (3 h): 30.4 mg/dL
- TP (3 h): 5.3 g/dL
- gamma-GTP (3 h): 1.2 IU/L
- TERMINAL_BW (6 h): 199.7 g
- APTT (6 h): 16.1 s
- Bas (6 h): 0%
- Eos (6 h): 0.8%
- Fbg (6 h): 210.2 mg/dL
- Hb (6 h): 13 g/dL
- Ht (6 h): 38.9%
- Lym (6 h): 71.2%
- MCH (6 h): 22 pg
- MCHC (6 h): 33.3%
- MCV (6 h): 66 fL
- Mono (6 h): 6.8%
- Neu (6 h): 21.4%
- PT (6 h): 12.2 s
- Plat (6 h): 121.8 x10_4/uL
- RBC (6 h): 589.4 x10_4/ul
- Ret (6 h): 10.6%
- WBC (6 h): 107.7 x10_2/uL
- KIDNEY_L (6 h): 0.9 g
- KIDNEY_R (6 h): 0.9 g
- KIDNEY_TOTAL (6 h): 1.9 g
- LIVER (6 h): 8.6 g
- A/G (6 h): 1.9
- ALP (6 h): 729.6 IU/L
- ALT (6 h): 35 IU/L
- AST (6 h): 69.8 IU/L
- BUN (6 h): 14.8 mg/dL
- CRE (6 h): 0.5 mg/dL
- Ca (6 h): 10.7 mg/dL
- Cl (6 h): 106.6 meq/L
- DBIL (6 h): 0.004 mg/dL
- GLC (6 h): 192.6 mg/dL
- IP (6 h): 9.8 mg/dL
- K (6 h): 5 meq/L
- LDH (6 h): 112.8 IU/L
- Na (6 h): 139.2 meq/L
- PL (6 h): 131 mg/dL
- RALB (6 h): 3.5 g/dL
- TBIL (6 h): 0.4 mg/dL
- TC (6 h): 82.8 mg/dL
- TG (6 h): 39.6 mg/dL
- TP (6 h): 5.3 g/dL
- gamma-GTP (6 h): 1.4 IU/L
- TERMINAL_BW (9 h): 195.9 g
- APTT (9 h): 17 s
- Bas (9 h): 0%
- Eos (9 h): 1%
- Fbg (9 h): 209 mg/dL
- Hb (9 h): 13 g/dL
- Ht (9 h): 38.5%
- Lym (9 h): 74.8%
- MCH (9 h): 21.8 pg
- MCHC (9 h): 33.6%
- MCV (9 h): 64.7 fL
- Mono (9 h): 5.4%
- Neu (9 h): 19%
- PT (9 h): 12.2 s
- Plat (9 h): 115.5 x10_4/uL
- RBC (9 h): 595 x10_4/ul
- Ret (9 h): 9.6%
- WBC (9 h): 90.7 x10_2/uL
- KIDNEY_L (9 h): 0.9 g
- KIDNEY_R (9 h): 0.9 g
- KIDNEY_TOTAL (9 h): 1.7 g
- LIVER (9 h): 7.8 g
- A/G (9 h): 2.2
- ALP (9 h): 849.2 IU/L
- ALT (9 h): 34.6 IU/L
- AST (9 h): 71.8 IU/L
- BUN (9 h): 12.2 mg/dL
- CRE (9 h): 0.4 mg/dL
- Ca (9 h): 10.7 mg/dL
- Cl (9 h): 108.2 meq/L
- DBIL (9 h): 0.016 mg/dL
- GLC (9 h): 188.4 mg/dL
- IP (9 h): 9.7 mg/dL
- K (9 h): 4.7 meq/L
- LDH (9 h): 77.6 IU/L
- Na (9 h): 139.4 meq/L
- PL (9 h): 120.4 mg/dL
- RALB (9 h): 3.5 g/dL
- TBIL (9 h): 0.4 mg/dL
- TC (9 h): 67.6 mg/dL
- TG (9 h): 33.4 mg/dL
- TP (9 h): 5.2 g/dL
- gamma-GTP (9 h): 1.2 IU/L
- TERMINAL_BW (24 h): 210.6 g
- APTT (24 h): 15.9 s
- Bas (24 h): 0%
- Eos (24 h): 1%
- Fbg (24 h): 218.4 mg/dL
- Hb (24 h): 13.5 g/dL
- Ht (24 h): 40%
- Lym (24 h): 81.2%
- MCH (24 h): 21.9 pg
- MCHC (24 h): 33.6%
- MCV (24 h): 65 fL
- Mono (24 h): 4%
- Neu (24 h): 14%
- PT (24 h): 11.5 s
- Plat (24 h): 114.2 x10_4/uL
- RBC (24 h): 615.6 x10_4/ul
- Ret (24 h): 9.9%
- WBC (24 h): 113 x10_2/uL
- KIDNEY_L (24 h): 0.9 g
- KIDNEY_R (24 h): 0.9 g
- KIDNEY_TOTAL (24 h): 1.9 g
- LIVER (24 h): 10.2 g
- A/G (24 h): 2.3
- ALP (24 h): 871.4 IU/L
- ALT (24 h): 39.8 IU/L
- AST (24 h): 68.2 IU/L
- BUN (24 h): 17.6 mg/dL
- CRE (24 h): 0.5 mg/dL
- Ca (24 h): 10.8 mg/dL
- Cl (24 h): 106.2 meq/L
- DBIL (24 h): 0.02 mg/dL
- GLC (24 h): 198 mg/dL
- IP (24 h): 8.2 mg/dL
- K (24 h): 5.2 meq/L
- LDH (24 h): 125.2 IU/L
- Na (24 h): 139 meq/L
- PL (24 h): 145.4 mg/dL
- RALB (24 h): 3.8 g/dL
- TBIL (24 h): 0.4 mg/dL
- TC (24 h): 78 mg/dL
- TG (24 h): 99.2 mg/dL
- TP (24 h): 5.5 g/dL
- gamma-GTP (24 h): 1.8 IU/L
